Data published in publication PMC10673615, “Quercetin-1,2,3-Triazole Hybrids as Multifunctional Anti-Alzheimer’s Agents” (Molecules, 2023).

Assays:
MCF-7 cells [1] = test: in vitro
Protocol: (§1) Given the importance of oxidative stress-induced apoptosis of neuronal cells in AD, we present here a study to investigate the effect of quercetin-1,2,3-triazole hybrids on H2O2-induced oxidative damage in cultured MCF-7 cells, used as a human cell model. Viability was assessed with the WST-1 test in the absence and in the presence of an oxidative stressor (10^−4 M H2O2).
(§2) MCF-7 (Human breast adenocarcinoma (MERCK—# 86012803-DNA-5UG), Database Name: ECACC collection, Accession Numbers: 86012803) was the cell line elected as a cell injury model for the study of the potential protective effect of the butyrylcholinesterase inhibitors (hybrids) against hydrogen peroxide-induced oxidative stress. Cytotoxicity of the hybrids was also evaluated.
(§3) The compounds to be tested were firstly dissolved in dimethyl sulfoxide (DMSO) at a concentration of 4 × 10^−2 M. They were then diluted in cell growth media (EMEM) (supplemented with FBS 10%) with 0.25% DMSO to obtain solutions between 6.25 and 50.00 µM.
(§4) Eagle’s Minimum Essentia Medium (EMEM), including 10% fetal bovine serum (FBS), 100 IU/mL penicillin, and 100 μg/mL streptomycin, was used to culture MCF-7 cells at 37 °C in 5% CO2 atmosphere incubator with media replenished every 2 days. A total of 5 × 10^3 cells were cultured in 96-well plates and incubated for 72 h prior to stimulus application.
(§5) The culture medium was subsequently replaced with different final concentrations (6.25–50 μM) of the compounds to be tested. Negative controls were prepared, incubating cells in culture media.
(§6) Parallel experiments were performed for cytotoxicity assessment and for protective effect against hydrogen peroxide-induced oxidative stress evaluation. First, 10 μL of PBS was added in the designated wells; second, 10 μL of H2O2 (reaching a final concentration of 100 µM) was added. Following a 2 h incubation period at 37 °C in 5% CO2 atmosphere incubator, cellular viability was measured by adding WST-1 dehydrogenases substrate and incubating for 1 h, and the amount of formazan dye produced was evaluated by measuring the absorbance at 440 nm.

MCF-7 cells [2] = test: Protective assay against hydrogen peroxide-induced oxidative stress in MCF-7 cells; type: cell-based, Human; details: 100 µM H2O2, 2 h
Protocol: as §1, §2, §5, §6

eeAChE = biological target: T1, eeAChE (Electrophorus electricus, UniProt O42275); test: Ellman cholinesterase inhibitory assay, eeAChE screening; type: biochemical; details: compound 100 µM; substrate 3 mM
T1 construct: catalogue number not given
Protocol: (§7) Firstly, the inhibitory activity of the quercetin-1,2,3-triazole hybrids I–IV was screened in vitro on eeAChE and eqBuChE at a concentration of 100 μM (these enzymes are considered as models of the human isoform). The ChE inhibitory activity of all compounds was evaluated using the method of Ellman.
(§8) The inhibitory activities of title compounds against commercially available cholinesterases (eeAChE) (Electrophorus electricus, Type V-S), eqBuChE (equine serum), were conducted using minor modifications of Ellman’s assay. Nine different concentrations ([…], 37.5, 75, 150, and 300 μM in H2O:DMSO (50:50)) of each test compound were used to determine the enzyme-inhibition activity. Briefly, 55 μL of 50 mM Tris-HCl buffer at pH 8, 25 μL of eqBuChE (0.03 U/mL), 20 μL of the test or standard compounds, and 125 μL of DTNB (0.8 mM) were incubated in 96-well plates at 37 °C for 15 min. Further, 25 μL of the substrate, BTCI (0.8 mM), was added, and the solution was incubated for additional 15 min. Finally, the absorbance was measured at 412 nm wavelength using a Microplate Spectrophotometry (TriStar® S LB 942 model instrument). The IC50 values were determined from the absorbance obtained for various concentrations of the test and the standard compounds. All determinations were performed in triplicate.
(§9) To determine the % of inhibition ([I] = 100 μM), the substrate concentration (acetylthiocholine iodide for AChE; S-butyrylthiocholine iodide for BuChE) was fixed at 3 mM.

eqBuChE [3] = biological target: T2, eqBuChE (Equus caballus, UniProt P81908); test: Ellman cholinesterase inhibitory assay, eqBuChE (screening and IC50); type: biochemical; details: for inhibition at 100 µM: compound 100 µM, substrate 3 mM; for IC50: concentration range 1.2-300 µM, BTCI 0.8 mM, read-out: IC50 values for eqBuChE
T2 construct: equine serum butyrylcholinesterase (eqBuChE); purchased Sigma-Aldrich (lyophilized powder, 10.9 U/mg); host or cells: equine serum
Protocol: as §7, §8, §9

[4] = DPPH radical scavenging antioxidant assay
Protocol: To assess the antioxidant activity of hybrids IVa–e, IIf and quercetin, the 2,2-diphenyl-1-[…] (DPPH) radical scavenging colorimetric method was used, which is one of the most widely used methods for determining antioxidant activity. In this method, antioxidants react with DPPH (which has a strong violet color) and convert it into yellow diphenylpicrylhydrazine. Compounds were assayed in the range of concentrations from 3 to 200 μg/mL. Ascorbic acid was used as positive control. […] Another piece of evidence is the similarity between the % inhibition values of hybrids IVa,b and IVd,e and quercetin.
The colorimetric DPPH assay was carried out as described in [33]. […] In brief, 30 μL of a test compound (in MeOH) was mixed with 200 μL of DPPH (100 μM in methanol) in a 96-well plate in triplicate. After 30 min incubation at room temperature in the absence of light, the absorbances were measured at 517 nm using Microplate Spectrophotometry (TriStar® S LB 942 model instrument). The free radical scavenging activity results are expressed as a percentage of DPPH inhibition according to the following formula:
% of Inhibition = 100[(A(Blank) − A(sample))/A(blank)], where A(blank) consists of methanol (30 μL) mixed with DPPH (200 μL) absorbance, and A(sample) is the absorbance value for the added sample concentration compound mixed with DPPH. Ascorbic acid was used as a positive control.

[5] = tested on: REM-138 cell line (canine breast cancer); parameters: method as in doi:10.1055/s-0040-1719928; details: REM cells; 72 h incubation; cited from earlier work
eqBuChE [6] = biological target: T2, eqBuChE; test: Kinetic study for the inhibition of eqBuChE (Lineweaver-Burk); type: biochemical; details: for Inhibition type / Ki: Lineweaver-Burk; for Ki: read-out: Ki (inhibitory constant)
Source text: The interaction with the active center of the enzyme thus seems to be favored by the presence of polar groups. Hybrid IIf presented the smaller Ki (Table 3), binding to the enzyme with the higher affinity, which can be relevant for pharmacologic applications in the future.
Lineweaver–Burk plot (1/V vs. 1/[BTCI]) was used for determining the inhibition constants (Ki’s) and the mechanism of action.

[7] = Artemia salina lethal toxicity assay; type: in vivo; details: Artemia salina, in vivo, other: grown in the presence of the compound, Artemia salina nauplii
Protocol: (§10) Artemia salina was used for in vivo general toxicity assessment of the promising hybrids IVb, IVd, and IIf; the results are shown in Table 4 and Figure 7. K2Cr2O7 was used as a control. Hybrid IVd presented the lowest toxicity.
(§11) The ARTOXKIT M protocol was used. The percentage of dyed nauplii of Artemia salina, grown in the presence of variable concentrations of the inhibitor compounds, was measured to determine the LC50 values. A test with K2Cr2O7 was used for quality control.

Artemia salina = Artemia salina lethal toxicity assay; type: in vivo; details: for concentrations without toxicity: Artemia salina
Protocol: as §10, §11

in vitro = details: human
Protocol: as §1, §2, §3, §4, §5, §6

T1 sequence (O42275 24-633): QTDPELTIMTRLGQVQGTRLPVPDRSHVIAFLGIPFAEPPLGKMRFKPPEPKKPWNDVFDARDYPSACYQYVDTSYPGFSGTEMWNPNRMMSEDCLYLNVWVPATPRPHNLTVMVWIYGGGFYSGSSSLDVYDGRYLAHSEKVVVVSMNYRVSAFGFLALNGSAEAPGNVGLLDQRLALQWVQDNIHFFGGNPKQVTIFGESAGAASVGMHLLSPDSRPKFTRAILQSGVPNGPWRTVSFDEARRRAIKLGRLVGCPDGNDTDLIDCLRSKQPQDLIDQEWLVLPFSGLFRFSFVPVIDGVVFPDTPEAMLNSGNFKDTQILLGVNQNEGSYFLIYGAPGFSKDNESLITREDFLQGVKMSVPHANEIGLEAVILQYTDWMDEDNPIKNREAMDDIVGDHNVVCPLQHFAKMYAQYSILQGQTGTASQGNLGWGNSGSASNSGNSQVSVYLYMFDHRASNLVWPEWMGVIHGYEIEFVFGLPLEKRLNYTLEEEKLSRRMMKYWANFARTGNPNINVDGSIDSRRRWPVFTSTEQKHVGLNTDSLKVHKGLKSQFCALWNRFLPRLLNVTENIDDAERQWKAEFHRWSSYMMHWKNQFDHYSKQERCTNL
T2 sequence (P81908 whole entry): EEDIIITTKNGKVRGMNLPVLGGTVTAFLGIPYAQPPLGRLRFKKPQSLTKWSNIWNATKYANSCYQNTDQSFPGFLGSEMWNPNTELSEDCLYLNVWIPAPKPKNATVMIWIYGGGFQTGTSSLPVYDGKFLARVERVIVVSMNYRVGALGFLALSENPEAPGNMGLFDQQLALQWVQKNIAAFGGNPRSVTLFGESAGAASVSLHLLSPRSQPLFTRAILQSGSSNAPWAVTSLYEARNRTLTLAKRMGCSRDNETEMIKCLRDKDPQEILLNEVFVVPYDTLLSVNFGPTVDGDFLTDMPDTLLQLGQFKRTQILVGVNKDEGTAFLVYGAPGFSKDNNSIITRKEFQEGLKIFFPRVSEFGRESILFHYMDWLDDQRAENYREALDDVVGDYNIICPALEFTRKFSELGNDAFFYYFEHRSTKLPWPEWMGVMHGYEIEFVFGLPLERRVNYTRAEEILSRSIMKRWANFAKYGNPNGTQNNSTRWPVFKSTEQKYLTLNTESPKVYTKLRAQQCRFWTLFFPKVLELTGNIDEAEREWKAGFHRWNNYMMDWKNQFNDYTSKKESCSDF

SMILES: COc1ccc2c3c1O[C@H]1C[C@@H](O)C=C[C@@]31CCN(C)C2 [Galantamine, reference compound]
- effect on cellular viability (MCF-7 cells [1]; concentrations tested 6.25-50 μM, MCF-7): did not reduce cellular viability
- cellular antioxidant protection against H2O2 (MCF-7 cells [2]): good antioxidant cellular protection

SMILES: O=c1c(OCCCCn2cc(-c3ccccc3)nn2)c(-c2ccc(O)c(O)c2)oc2cc(O)cc(O)c12 [IVa, 2-(3,4-Dihydroxyphenyl)-5,7-dihydroxy-3-(4-(4-phenyl-1H-1,2,3-triazol-1-yl)butoxy)-4H-chromen-4-one]
- inhibition at 100 µM (eeAChE): 0%
- inhibition at 100 µM (eqBuChE [3]): 82.8%
- IC50 (eqBuChE [3]): 24.7 µM
- DPPH antioxidant activity ([4]; 100 μg/mL): potent antioxidant activity
- reduction of cellular viability (MCF-7 cells [1]; 6.25 μM, MCF-7, 2 h, without H2O2): 40%
- cytotoxic concentration [5]: > 10 µM

SMILES: O=c1c(OCCCCn2cc(C3CC3)nn2)c(-c2ccc(O)c(O)c2)oc2cc(O)cc(O)c12 [IVb, 3-(4-(4-Cyclopropyl-1H-1,2,3-triazol-1-yl)butoxy)-2-(3,4-dihydroxyphenyl)-5,7-dihydroxy-4H-chromen-4-one]
- inhibition at 100 µM (eeAChE): 5.21%
- inhibition at 100 µM (eqBuChE [3]): 90.5%
- IC50 (eqBuChE [3]): 32.4 µM
- Inhibition type (eqBuChE [6]): mixed type (non-competitive)
- Ki (eqBuChE [6]): 30 µM
- Vmax app (eqBuChE [6]; inhibitor 17.5 µM): 7.5 U.mg^−1
- Vmax app (eqBuChE [6]; inhibitor 35 µM): 6.5 U.mg^−1
- Vmax app (eqBuChE [6]; inhibitor 70 µM): 4.5 U.mg^−1
- DPPH antioxidant activity ([4]; 100 μg/mL): potent antioxidant activity
- cytotoxic concentration (MCF-7 cells [1]; human, 2 h): > 25 µM
- cellular antioxidant protection against H2O2 (MCF-7 cells [2]): equally effective in the antioxidant protection
- LC50 [7]: 10 to 100 µM
- concentrations without toxicity (Artemia salina): ≤ 10 µM
- cytotoxic concentration [5]: > 10 µM

SMILES: COc1cc(OC)c2c(=O)c(OCCCCn3cc(CN4C(=O)C(=O)c5ccccc54)nn3)c(-c3ccc(OC)c(OC)c3)oc2c1 [IIf, 1-((1-(4-((2-(3,4-Dimethoxyphenyl)-5,7-dimethoxy-4-oxo-4H-chromen-3-yl)oxy)butyl)-1H-1,2,3-triazol-4-yl)methyl)indoline-2,3-dione]
- inhibition at 100 µM (eeAChE): 24.3%
- inhibition at 100 µM (eqBuChE [3]): 100%
- IC50 (eqBuChE [3]): 11.2 µM
- Inhibition type (eqBuChE [6]): competitive inhibition
- Ki (eqBuChE [6]): 6.2 µM
- Vmax app (eqBuChE [6]; inhibitor 5 µM): 11.8 U.mg^−1
- Vmax app (eqBuChE [6]; inhibitor 20 µM): 11.4 U.mg^−1
- Vmax app (eqBuChE [6]; inhibitor 40 µM): 13.4 U.mg^−1
- DPPH antioxidant activity ([4]; 3 to 200 μg/mL): no antioxidant activity
- cellular antioxidant protection against H2O2 (MCF-7 cells [2]): equally effective in the antioxidant protection
- LC50 [7]: 34.6 µM
- concentrations without toxicity (Artemia salina): ≤ 10 µM

SMILES: CC(C)(O)c1cn(CCCCOc2c(-c3ccc(O)c(O)c3)oc3cc(O)cc(O)c3c2=O)nn1 [IVd, 2-(3,4-Dihydroxyphenyl)-5,7-dihydroxy-3-(4-(4-(2-hydroxypropan-2-yl)-1H-1,2,3-triazol-1-yl)butoxy)-4H-chromen-4-one]
- inhibition at 100 µM (eeAChE): 3.65%
- inhibition at 100 µM (eqBuChE [3]): 56.6%
- IC50 (eqBuChE [3]): 39 µM
- Inhibition type (eqBuChE [6]): competitive inhibition
- Ki (eqBuChE [6]): 36 µM
- Vmax app (eqBuChE [6]; inhibitor 17.5 µM): 9.6 U.mg^−1
- Vmax app (eqBuChE [6]; inhibitor 35 µM): 9.0 U.mg^−1
- DPPH antioxidant activity ([4]; 100 μg/mL): potent antioxidant activity
- EC50 at 2 h (in vitro): > 50 µM
- cellular antioxidant protection against H2O2 (MCF-7 cells [2]): equally effective in the antioxidant protection
- LC50 [7]: > 100 µM
- LC50 (Artemia salina; Artemia salina nauplii, read-out: LC50): ≥ 100 µM
